In patent US20070128217A1 (priority 2003, published 2007):

Assays:
[1] = system: rabbit serum obtained by immunizing a rabbit with the SARS-CoV strain Frankfurt 1; format: binding; parameters: Binding of a rabbit serum to linear peptides / Binding of a rabbit serum to looped peptides / Rabbit serum linear peptides / Rabbit serum looped peptides / Binding of a rabbit serum to linear peptides of protein N of SARS-CoV Urbani (Rabbit serum linear peptides) / Binding of a rabbit serum to looped/cyclic peptides of protein N of SARS-CoV Urbani (Rabbit serum looped peptides): unit not given here
[2] = system: antibodies in sera from SARS patients (sera 1a, 1b, 2, 6, 37, 62, London, SARS-yellow, SARS-green); format: binding, human; parameters: Binding of serum 6 to linear peptides of protein X1 of SARS-CoV Urbani / Binding of serum 37 to linear peptides of protein X1 of SARS-CoV Urbani / Binding of serum 6 to looped/cyclic peptide (PEPSCAN-ELISA) / Binding of serum 37 to looped/cyclic peptide (PEPSCAN-ELISA) / Binding of serum 37 to looped/cyclic peptides of protein X1 of SARS-CoV Urbani / Binding of serum 6 to linear peptides of protein X2 / Binding of serum 37 to linear peptides of protein X2 / Binding of serum 37 to looped/cyclic peptides of protein X2 of SARS-CoV Urbani / Binding of serum 6 to linear peptides of protein M of SARS-CoV Urbani / Binding of serum 37 to linear peptides of protein M of SARS-CoV Urbani / Binding of serum 6 to looped/cyclic peptides of protein M of SARS-CoV Urbani / Binding of serum 37 to looped/cyclic peptides of protein M of SARS-CoV Urbani / Binding of serum 6 to linear peptides of protein X3 of SARS-CoV Urbani / Binding of serum 37 to linear peptides of protein X3 of SARS-CoV Urbani / Binding of serum 37 to looped/cyclic peptides of protein X3 of SARS-CoV Urbani / Binding of serum 6 to linear peptides of protein X4 of SARS-CoV Urbani / Binding of serum 37 to linear peptides of protein X4 of SARS-CoV Urbani / Binding of serum 37 to looped/cyclic peptides of protein X4 of SARS-CoV Urbani / Binding of serum 6 to linear peptides of protein X5 of SARS-CoV Urbani / Binding of serum 37 to linear peptides of protein X5 of SARS-CoV Urbani / Binding of serum 37 to looped/cyclic peptides of protein X5 of SARS-CoV Urbani / Binding of serum 6 to linear peptides of protein N of SARS-CoV Urbani / Binding of serum 37 to linear peptides of protein N of SARS-CoV Urbani / Binding of serum 6 to linear peptide (PEPSCAN-ELISA) / Binding of serum 1a to looped/cyclic peptides of protein N of SARS-CoV Urbani / Binding of serum 1b to looped/cyclic peptides of protein N of SARS-CoV Urbani / Binding of serum 2 to looped/cyclic peptides of protein N of SARS-CoV Urbani / Binding of serum 6 to looped/cyclic peptides of protein N of SARS-CoV Urbani / Binding of serum 37 to looped/cyclic peptides of protein N of SARS-CoV Urbani / Binding of serum 62 to looped/cyclic peptides of protein N of SARS-CoV Urbani / Binding of serum London to looped/cyclic peptides of protein N of SARS-CoV Urbani / Binding of serum SARS-green to looped/cyclic peptides of protein N of SARS-CoV Urbani: unit not given here
[3] = system: control sera (pooled serum of ten healthy LUMC hospital workers; commercial negative donor pooled serum from the Dutch bloodbank); format: binding, human; parameters: Binding of Control serum LUMC to linear peptides / Binding of Control serum Blood-bank to linear peptides / Binding of Control serum LUMC to looped peptides / Binding of Control Serum Blood-Bank to Looped peptides / Binding of Control serum LUMC to linear peptides of the protein M of SARS-CoV Urbani / Binding of Control serum Blood-bank to linear peptides of the protein M of SARS-CoV Urbani / Binding of Control serum LUMC to looped peptides of the protein M of SARS-CoV Urbani / Binding of Control Serum Blood-Bank to Looped peptides of the protein M of SARS-CoV Urbani: unit not given here

TLAILTALRLCAYCC
Binding of a rabbit serum to linear peptides [1]: 0.7
Binding of a rabbit serum to looped peptides [1]: 0.4
Binding of serum 1a to linear peptides of protein E of SARS-CoV Urbani [2]: 0.8
Binding of serum 1a to looped/cyclic peptides of protein E of SARS-CoV Urbani [2]: 0.7
Binding of serum 1b to linear peptides of protein E of SARS-CoV Urbani [2]: 0.9
Binding of serum 1b to looped/cyclic peptides of protein E of SARS-CoV Urbani [2]: 0.6
Binding of serum 2 to linear peptides of protein E of SARS-CoV Urbani [2]: 0.3
Binding of serum 2 to looped/cyclic peptides of protein E of SARS-CoV Urbani [2]: 0.7
Binding of serum 6 to linear peptides of protein E of SARS-CoV Urbani [2]: 0.6
Binding of serum 6 to looped/cyclic peptides of protein E of SARS-CoV Urbani [2]: 0.7
Binding of serum 37 to linear peptides of protein E of SARS-CoV Urbani [2]: 0.7
Binding of serum 37 to looped/cyclic peptides of protein E of SARS-CoV Urbani [2]: 0.7
Binding of serum 62 to linear peptides of protein E of SARS-CoV Urbani [2]: 0.7
Binding of serum 62 to looped/cyclic peptides of protein E of SARS-CoV Urbani [2]: 0.7
Binding of serum London to linear peptides of protein E of SARS-CoV Urbani [2]: 0.5
Binding of serum London to looped/cyclic peptides of protein E of SARS-CoV Urbani [2]: 0.5
Binding of serum SARS-green to linear peptides of protein E of SARS-CoV Urbani [2]: 0.5
Binding of serum SARS-green to looped/cyclic peptides of protein E of SARS-CoV Urbani [2]: 0.5
Binding of serum SARS-yellow to linear peptides of protein E of SARS-CoV Urbani [2]: 0.2
Binding of serum SARS-yellow to looped/cyclic peptides of protein E of SARS-CoV Urbani [2]: 0.9
Binding of Control Serum Blood-Bank to Looped peptides [3]: 0.7
Binding of Control serum Blood-bank to linear peptides [3]: 0.6
Binding of Control serum LUMC to linear peptides [3]: 0.4
Binding of Control serum LUMC to looped peptides [3]: 0.8

VAALVFLILCFTIKR
Rabbit serum linear peptides [1]: 0.5
Rabbit serum looped peptides [1]: 0.6
Binding of serum 1a to linear peptides of protein X4 of SARS-CoV Urbani [2]: 0.6
Binding of serum 1a to looped/cyclic peptides of protein X4 of SARS-CoV Urbani [2]: 0.8
Binding of serum 1b to linear peptides of protein X4 of SARS-CoV Urbani [2]: 0.5
Binding of serum 1b to looped/cyclic peptides of protein X4 of SARS-CoV Urbani [2]: 0.4
Binding of serum 2 to linear peptides of protein X4 of SARS-CoV Urbani [2]: 0.4
Binding of serum 2 to looped/cyclic peptides of protein X4 of SARS-CoV Urbani [2]: 0.7
Binding of serum 6 to linear peptides of protein X4 of SARS-CoV Urbani [2]: 0.5
Binding of serum 6 to looped/cyclic peptides of protein X4 of SARS-CoV Urbani [2]: 0.6
Binding of serum 37 to linear peptides of protein X4 of SARS-CoV Urbani [2]: 0.7
Binding of serum 37 to looped/cyclic peptides of protein X4 of SARS-CoV Urbani [2]: 0.7
Binding of serum 62 to linear peptides of protein X4 of SARS-CoV Urbani [2]: 0.7
Binding of serum 62 to looped/cyclic peptides of protein X4 of SARS-CoV Urbani [2]: 0.7
Binding of serum London to linear peptides of protein X4 of SARS-CoV Urbani [2]: 0.6
Binding of serum London to looped/cyclic peptides of protein X4 of SARS-CoV Urbani [2]: 0.3
Binding of serum SARS-green to linear peptides of protein X4 of SARS-CoV Urbani [2]: 0.5
Binding of serum SARS-green to looped/cyclic peptides of protein X4 of SARS-CoV Urbani [2]: 0.4
Binding of serum SARS-yellow to linear peptides of protein X4 of SARS-CoV Urbani [2]: 0.5
Binding of serum SARS-yellow to looped/cyclic peptides of protein X4 of SARS-CoV Urbani [2]: 0.5
Binding of Control Serum Blood-Bank to Looped peptides [3]: 0.8
Binding of Control serum Blood-bank to linear peptides [3]: 0.5
Binding of Control serum LUMC to linear peptides [3]: 0.4
Binding of Control serum LUMC to looped peptides [3]: 0.6
